Results published in US6964983B2, “Compounds that modulate PPAR activity and methods for their preparation” (Warner-Lambert Company, LLC, priority 2002, dated 2005).

Columns and labels:
hPPARα = molecular target: T1, hPPARα (Homo sapiens, UniProt Q07869); assay: Transient transfection assay in HepG2 cells, Gal4-hPPARα chimeric receptor, luciferase reporter; format: cell-based; details: Hep G2-hAlpha EC50, 24 hours incubation; read-out: EC50α nM (Group)
T1 sequence (Q07869 200-468 limits assumed): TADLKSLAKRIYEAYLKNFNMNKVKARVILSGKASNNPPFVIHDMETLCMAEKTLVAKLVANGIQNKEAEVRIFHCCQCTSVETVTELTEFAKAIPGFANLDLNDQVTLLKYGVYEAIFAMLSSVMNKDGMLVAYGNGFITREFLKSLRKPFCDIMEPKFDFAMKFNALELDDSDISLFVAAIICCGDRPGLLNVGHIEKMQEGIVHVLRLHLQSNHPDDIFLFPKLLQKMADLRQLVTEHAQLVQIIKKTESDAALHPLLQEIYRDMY
Experimental: (§1) 1. Test A. Transient Transfections Assay using the HepG2 Hepatoma Cell Line.
(§2) HepG2 cells were transiently transfected with an expression plasmids encoding hPPARα, hPPARβ or mPPARγ chimeric receptors and a reporter containing the yeast upstream activating sequence (UAS) upstream of the viral E1B promoter controlling a luciferase reporter gene. In addition, the plasmid pRSVβ-gal was used to control for transfection efficiency. HepG2 cells were grown in DMEM supplemented with 10% FBS and 1 μM non-essential amino acid. On the first day, cells were split into 100 mm dishes at 2.5×10^6/dish and incubated overnight at 37° C./5% CO2. On the second day the cells were transiently transfected with plasmid DNA encoding a chimeric receptor, the luciferase reporter gene; and β-gal. For each 100 mm dish, 15 μg of lucifease reporter (PG5E1b) DNA, 15 μg of Gal4-PPAR chimeric receptor DNA, and 1.5 μg of β-gal plasmid DNA were mixed with 1.4 ml of opti-MEM in the tube. 28 μl of LipoFectamine-2000 reagent was added to 1.4 ml of opti-MEM in the tube, and incubate for 5 min at RT. The diluted Lipofectamine-2000 reagent was combined with the DNA mixture, and incubate for 20 min at RT. After fresh medium was added to each 100 mm dish of cells, 2.8 ml of Lipofectamine2000-DNA mixture was added dropwise to the 100 mm dish containing 14 ml of medium, and incubate 37° C. overnight. On day three cells were trypsinized off the 100 mm dishes and re-plated on 96 well plates. Cells were plated at 2.5×10^4 cells per well in 150 μl of media and 50 μl of compound diluted by media was added. The test compound added were in the range from 50 μM to 50 pM. After addition of compounds, the plates were incubated at 37° C. for 24 hours. Subsequently cells were washed with once with 100 μl of PBS, lysed, and processed for measuring luciferase and β-gal activity using Dual-Light luciferase kit from Tropix ®, according to the manufacturer's recommendations, on an EG&G Bethold MicroLumat LB96P luminometer. EC50 values were obtained using the GraphPad Prism™ program.

hPPARβ = molecular target: T2, hPPARβ (Homo sapiens, UniProt Q03181); assay: Transient transfection assay in HepG2 cells, Gal4-hPPARβ chimeric receptor, luciferase reporter; format: cell-based; details: Hep G2-hBeta EC50, 24 hours incubation; read-out: EC50β nM (Group)
T2 sequence (Q03181 171-441 limits assumed): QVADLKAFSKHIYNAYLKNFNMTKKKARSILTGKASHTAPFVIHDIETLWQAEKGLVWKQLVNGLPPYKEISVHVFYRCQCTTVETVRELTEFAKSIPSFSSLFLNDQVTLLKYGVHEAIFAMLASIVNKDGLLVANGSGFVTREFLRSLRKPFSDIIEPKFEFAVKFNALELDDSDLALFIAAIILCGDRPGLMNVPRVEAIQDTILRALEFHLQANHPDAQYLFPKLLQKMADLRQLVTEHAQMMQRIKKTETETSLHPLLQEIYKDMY
Experimental: as §1, §2

COc1cc(OCC(=O)O)c(C)cc1SCc1ccc(-c2ccc(Cl)cc2Cl)cc1 [Example 7, [4-(2′,4′-Dichloro-biphenyl-4-ylmethylsulfanyl)-5-methoxy-2-methyl-phenoxy]-acetic acid]
EC50 (hPPARα): < 300 nM
EC50 (hPPARβ): < 300 nM

COc1cc(OCC(=O)O)c(C)cc1SCc1ccc(-c2ccc(F)cc2)cc1 [Example 10, [4-(4′-Fluoro-biphenyl-4-ylmethylsulfanyl)-5-methoxy-2-methyl-phenoxy]-acetic acid]
EC50 (hPPARα): 300 to 500 nM
EC50 (hPPARβ): < 300 nM

COc1cc(OCC(=O)O)c(C)cc1SCc1ccc(-c2cccc(OC(F)(F)F)c2)cc1 [Example 11, [5-Methoxy-2-methyl-4-(3′-trifluoromethoxy-biphenyl-4-ylmethylsulfanyl)-phenoxy]-acetic acid]
EC50 (hPPARα): 500 to 1000 nM
EC50 (hPPARβ): < 300 nM

Cc1cc(SCc2ccc3c(c2)Cc2ccccc2-3)ccc1OCC(=O)O [Example 17]
EC50 (hPPARα): 2000 to 5000 nM
EC50 (hPPARβ): 1000 to 2000 nM

COc1cc(OCC(=O)O)ccc1SCc1ccc(-c2ccc(C(F)(F)F)cc2)cc1 [Example 21, [3-Methoxy-4-(4′-trifluoromethyl-biphenyl-4-ylmethylsulfanyl)-phenoxy]-acetic acid]
EC50 (hPPARα): < 300 nM
EC50 (hPPARβ): < 300 nM

Cc1cc(SCc2ccc(-c3ccc(C(F)(F)F)cn3)cc2)ccc1OCC(=O)O [Example 30, {2-Methyl-4-[4-(5-trifluoromethyl-pyridin-2-yl)-benzylsulfanyl]-phenoxy}-acetic acid]
EC50 (hPPARα): 1000 to 2000 nM
EC50 (hPPARβ): 1000 to 2000 nM

COc1cc(OCC(=O)O)c(C)cc1SCc1cc(-c2ccc(Cl)cc2)on1 [Example 41, {4-[5-(4-Chloro-phenyl)-isoxazol-3-ylmethylsulfanyl]-5-methoxy-2-methyl-phenoxy}-acetic acid]
EC50 (hPPARα): 2000 to 5000 nM
EC50 (hPPARβ): < 300 nM

Cc1cc(SCc2cc(-c3ccc(C(F)(F)F)cc3)on2)ccc1OCC(=O)O [Example 42, {2-Methyl-4-[5-(4-trifluoromethyl-phenyl)-isoxazol-3-ylmethylsulfanyl]-phenoxy}-acetic acid]
EC50 (hPPARα): 2000 to 5000 nM

COc1cc(OCC(=O)O)c(C)cc1SCc1cc(-c2ccc(C(F)(F)F)cc2)on1 [Example 43, {5-Methoxy-2-methyl-4-[5-(4-trifluoromethyl-phenyl)-isoxazol-3-ylmethylsulfanyl]-phenoxy}-acetic acid]
EC50 (hPPARα): 500 to 1000 nM
EC50 (hPPARβ): < 300 nM

O=C(O)COc1ccc(SCc2cc(-c3ccc(C(F)(F)F)cc3)on2)c2c1CCC2 [Example 44, {7-[5-(4-Trifluoromethyl-phenyl)-isoxazol-3-ylmethylsulfanyl]-indan-4-yloxy}-acetic acid]
EC50 (hPPARα): > 5000 nM
EC50 (hPPARβ): 500 to 1000 nM

COc1cc(OCC(=O)O)c(C)cc1SCc1cc(-c2ccc(C(F)(F)F)cc2)no1 [Example 46, {5-Methoxy-2-methyl-4-[3-(4-trifluoromethyl-phenyl)-isoxazol-5-ylmethylsulfanyl]-phenoxy}-acetic acid]
EC50 (hPPARα): < 300 nM
EC50 (hPPARβ): < 300 nM

O=C(O)COc1ccc(SCc2ccc(OCc3ccc(Cl)c(Cl)c3)cc2)c2c1CCC2 [Example 72, {7-[4-(3,4-Dichloro-benzyloxy)-benzylsulfanyl]-indan-4-yloxy}-acetic acid]
melting point: 168 °C
EC50 (hPPARβ): 1000 to 2000 nM

O=C(O)COc1ccc(SCc2ccc(OCc3ccc(OC(F)(F)F)cc3)cc2)c2c1CCC2 [Example 75, {7-[4-(4-Trifluoromethoxy-benzyloxy)-benzylsulfanyl]-indan-4-yloxy}-acetic acid]
melting point: 140 to 142 °C
EC50 (hPPARβ): 500 to 1000 nM

O=C(O)COc1ccc(SCc2ccc(OCc3ccc(F)cc3C(F)(F)F)cc2)c2c1CCC2 [Example 76, {7-[4-(4-Fluoro-2-trifluoromethyl-benzyloxy)-benzylsulfanyl]-indan-4-yloxy}-acetic acid]
melting point: 125 to 127 °C
EC50 (hPPARβ): 1000 to 2000 nM

O=C(O)COc1ccc(SCc2ccc(OCc3cc(Cl)cc(Cl)c3)cc2)c2c1CCC2 [Example 77, {7-[4-(3,5-Dichloro-benzyloxy)-benzylsulfanyl]-indan-4-yloxy}-acetic acid]
melting point: 134 to 135 °C
EC50 (hPPARβ): 300 to 500 nM

COc1ccc(CSc2ccc(OCC(=O)O)c3c2CCC3)cc1OCc1ccc(C(F)(F)F)cc1 [Example 78, {7-[4-Methoxy-3-(4-trifluoromethyl-benzyloxy)-benzylsulfanyl]-indan-4-yloxy}-acetic acid]
melting point: 150 to 151 °C
EC50 (hPPARβ): 300 to 500 nM

O=C(O)COc1ccc(SCc2cccc(OCc3ccc(Cl)c(C(F)(F)F)c3)c2)c2c1CCC2 [Example 80, {7-[3-(4-Chloro-3-trifluoromethyl-benzyloxy)-benzylsulfanyl]-indan-4-yxoly}-acetic acid]
melting point: 121 to 122 °C
EC50 (hPPARβ): 1000 to 2000 nM

O=C(O)COc1ccc(SCc2ccc(OCc3cc(Cl)ccc3Cl)cc2)c2c1CCCO2 [Example 85, {8-[4-(2,5-Dichloro-benzyloxy)-benzylsulfanyl]-chroman-5-yloxy}-acetic acid]
melting point: 98 to 100 °C
EC50 (hPPARβ): 1000 to 2000 nM

O=C(O)COc1ccc(SCc2cc(-c3ccccc3Cl)on2)c2c1CCC2 [Example 87, {7-[5-(2-Chloro-phenyl)-isoxazol-3-ylmethylsulfanyl]-indan-4-yloxy}-acetic acid]
melting point: 161 to 162 °C
EC50 (hPPARβ): 2000 to 5000 nM

Cc1onc(-c2c(Cl)cccc2Cl)c1CSc1ccc(OCC(=O)O)c2c1CCC2 [Example 88, {7-[3-(2,6-Dichloro-phenyl)-5-methyl-isoxazol-4-ylmethylsulfanyl]-indan-4-yloxy}-acetic acid]
melting point: 151 to 152 °C
EC50 (hPPARβ): > 5000 nM

O=C(O)COc1ccc(SCc2cc(-c3ccc(C(F)(F)F)cc3)no2)c2c1CCC2 [Example 89, {7-[3-(4-Trifluoromethyl-phenyl)-isoxazol-5-ylmethylsulfanyl]-indan-4-yloxy}-acetic acid]
melting point: 166 to 168 °C
EC50 (hPPARβ): 1000 to 2000 nM

O=C(O)COc1ccc(SCCc2ccc(-c3ccc(C(F)(F)F)cc3)cc2)c2c1CCC2 [Example 90, {7-[2-(4′-Trifluoromethyl-biphenyl-4-yl)-ethylsulfanyl]-indan-4-yloxy}-acetic acid]
melting point: 170 to 172 °C
EC50 (hPPARβ): 500 to 1000 nM

O=C(O)COc1ccc(CCc2ccc(-c3ccc(C(F)(F)F)cc3)cc2)c2c1CCC2 [Example 91, {7-[2-(4′-Trifluoromethyl-biphenyl-4-yl)-ethyl]-indan-4-yloxy}-acetic acid]
melting point: 188 to 190 °C
EC50 (hPPARβ): 2000 to 5000 nM

O=C(O)COc1ccc(SCc2ccc(-c3ccc(C(F)(F)F)cc3)cc2)c2c1CCCO2 [Example 93, [8-(4′-Trifluoromethyl-biphenyl-4-ylmethylsulfanyl)-chroman-5-yloxy]-acetic acid]
melting point: 170 to 172 °C
EC50 (hPPARβ): 500 to 1000 nM

O=C(O)COc1ccc(SCc2cc(-c3ccc(Cl)cc3)no2)c2c1CCC2 [Example 98, {7-[3-(4-Chloro-phenyl)-isoxazol-5-ylmethylsulfanyl]-indan-4-yloxy}-acetic acid]
melting point: 158 to 160 °C
EC50 (hPPARβ): 2000 to 5000 nM

Cc1cc(SCc2cc(-c3ccc(C(F)(F)F)cc3)on2)c(Cl)cc1OCC(=O)O [Example 99, {5-Chloro-2-methyl-4-[5-(4-trifluoromethyl-phenyl)-isoxazol-3-ylmethylsulfanyl]-phenoxy}-acetic acid]
melting point: 180 to 182 °C
EC50 (hPPARβ): 300 to 500 nM

CCCCc1cc(SCc2ccc(-c3ccc(C(F)(F)F)cc3)cc2)ccc1OCC(=O)O [Example 100, 2-[2-butyl-4-({4-[4-(trifluoromethyl)phenyl]phenyl}methylthio)phenoxy]acetic acid]
melting point: 155 to 157 °C
EC50 (hPPARβ): 500 to 1000 nM
